Results taken from US7550469B2, “Heterocyclic amide derivatives and their use as dopamine D3 receptor ligands” (Aventis Pharmaceuticals Inc., priority 2001, dated 2009).
pKi: −log10 of the molar value. Read-outs that look alike come from different tables or passages of the source. Blank lines part the entries; values can stand above or below the molecule they belong to.

Target: T1, cloned human dopamine D3 receptors (Homo sapiens, UniProt P35462)
T1 construct: expressed in transfected cells; membrane homogenate
T1 sequence (P35462 whole entry): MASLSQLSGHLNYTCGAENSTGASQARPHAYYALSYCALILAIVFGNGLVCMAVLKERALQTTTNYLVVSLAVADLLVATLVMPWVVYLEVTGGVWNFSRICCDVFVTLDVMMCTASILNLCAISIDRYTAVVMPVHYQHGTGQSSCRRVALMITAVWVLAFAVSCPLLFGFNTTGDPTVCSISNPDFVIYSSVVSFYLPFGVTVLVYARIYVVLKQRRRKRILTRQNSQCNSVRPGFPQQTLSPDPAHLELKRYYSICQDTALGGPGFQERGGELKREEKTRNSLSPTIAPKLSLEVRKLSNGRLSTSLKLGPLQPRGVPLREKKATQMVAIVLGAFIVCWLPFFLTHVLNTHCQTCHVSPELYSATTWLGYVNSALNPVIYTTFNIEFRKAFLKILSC
Experiment: [N-Methyl-3H]Spiroperidol binding to cloned human dopamine D3 receptors (Protocol 1)
Procedure, shortened: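 Radioligand displacement with [N-methyl-3H]spiroperidol used a physiological-salt Tris buffer (0.05 M, pH 7.7; NaCl 120 mM, KCl 5 mM, CaCl2 2 mM, MgCl2 1 mM) and membranes of a high-expressing stable CHO clone carrying human D3. Total ligand concentration came from measured added CPM; 0.1% ascorbic acid was optional for oxidizable compounds.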

[1] = the 13th table, unit inferred, read-out: D3Ki
[2] = the 16th table, read-out: D3 Ki
[3] = the 19th table, read-out: D3 Ki
[4] = the 22nd table, read-out: D3 Ki
[5] = the 21st table, read-out: D3 Ki
[6] = the 14th table, read-out: D3 Ki
[7] = the 15th table, read-out: D3 Ki
[8] = the 17th table, read-out: D3 Ki
[9] = the 24th table, read-out: D3 Ki

SMILES: O=C(Nc1cccc(CN2CCN(c3csc4cc(F)ccc34)CC2)c1)c1cnc2ccccc2n1 [compound 822184]
pKi [3]: 6.57

SMILES: O=C(NCCCCN1CCN(c2nn(C(=O)c3ccc(C(F)(F)F)cc3)c3ccsc23)CC1)c1ccc(C(F)(F)F)cc1 [compound 825149]
pKi [4]: 6.79

SMILES: CC(=O)C1CC(CC(=O)NC/C=C/CN2CCN(c3csc4cc(C(F)(F)F)ccc34)CC2)C1(C)C (stereo not drawn) [compound 827741]
pKi (Table 2, read-out: D3K1): 6.61

SMILES: CC1=C(C(=O)NCCCCN2[C@H](C)CN(c3csc4cc(F)ccc34)C[C@@H]2C)Cc2ccccc21 [compound 827255]
pKi [5]: 7.27

SMILES: Cc1ccc(C(=O)N[C@H](CO)CCCN2CCN(c3csc4cc(C(F)(F)F)ccc34)CC2)cc1 [compound 815695]
pKi (Table 2, read-out: D3K1): 6.70
pKi (read-out: D3K1): 6.70
pKi [6]: 6.70

SMILES: O=C(NCCCCN1CCN(c2noc3ccsc23)CC1)c1cnc2ccccc2n1 [compound 829688]
pKi [4]: 6.17

SMILES: O=C(NCCCCN1C2CCC1CC(c1noc3cc(F)ccc13)C2)c1cc2ccccc2s1 (stereo not drawn) [compound 816334]
pKi [7]: 7.19

SMILES: CC1(C)C(CNC(=O)c2cccc(C#N)c2)C1CN1CCN(c2csc3cc(C(F)(F)F)ccc23)CC1 (stereo not drawn) [compound 826280]
pKi (read-out: D3K1): 6.94

SMILES: O=C(NC/C=C\CN1CCN(c2csc3cc(C(F)(F)F)ccc23)CC1)c1ccsc1 [compound 826332]
pKi (read-out: D3K1): 7.70

SMILES: C[C@@H]1CN(c2csc3cc(C(F)(F)F)ccc23)C[C@H](C)N1CCCCNC(=O)c1cccs1 [compound 827046]
pKi [5]: 7.24

SMILES: COc1ccc(C(=O)NCC2CC2CN2CCCN(c3csc4cc(F)ccc34)CC2)cc1 (racemic) [compound 830405]
pKi [8]: 8.78

SMILES: O=C(Cc1cccs1)NCCCCN1C2CCC1CC(c1noc3ccccc13)C2 (stereo not drawn) [compound 816521]
pKi [7]: 6.48

SMILES: O=C(c1ccc(-c2ccccc2)cc1)N(Cc1ccccc1)CC1CC1CN1CCCN(c2csc3cc(F)ccc23)CC1 (racemic) [compound 830397]
pKi [8]: 7.26

SMILES: COc1ccc(C(=O)Nc2cccc(CN3CCN(c4csc5cc(F)ccc45)CC3)c2)cc1OC [compound 822180]
pKi [3]: 7.58

SMILES: Cc1nnsc1C(=O)NCCCCN1CCCN(c2csc3cc(C(F)(F)F)ccc23)CC1 [S980660]
pKi [1]: 7.36

SMILES: O=C(Cc1cc2ccccc2s1)NCCCCCN1CCC(c2noc3ccsc23)CC1 [compound 816206]
pKi [1]: 6.30

SMILES: O=C(NC/C=C\CN1CCN(c2csc3cc(C(F)(F)F)ccc23)CC1)c1cc(F)cc(F)c1 [compound 826338]
pKi (read-out: D3K1): 7.03

SMILES: Cc1ccccc1C(=O)Nc1ccc(CN2CCN(c3csc4cc(F)ccc34)CC2)cc1 [compound 822212]
pKi [3]: 6.79

SMILES: Cc1ccc(Sc2cc(C(=O)NCCCCN3CCCN(c4csc5cc(C(F)(F)F)ccc45)CC3)ccn2)cc1 [S980659]
pKi [1]: 6.96

SMILES: Cc1ccccc1C(=O)NCCCCN1C2CCC1CC(c1noc3ccccc13)C2 (stereo not drawn) [compound 816531]
pKi [7]: 6.52

SMILES: N#Cc1ccc(C(=O)NCCCCN2CCN(c3noc4ccsc34)CC2)cc1 [compound 829686]
pKi [4]: 7.38

SMILES: CC(C)(C)c1ccc(S(=O)(=O)NCC2CC2CN2CCC(c3noc4ccsc34)CC2)cc1 (stereo not drawn) [compound 831512]
pKi [9]: 7.27

SMILES: O=C(NCC(CO)CCN1CCN(c2csc3cc(C(F)(F)F)ccc23)CC1)c1cccc(C(=O)c2ccccc2)c1 (single isomer, unassigned) [818912ES]
pKi (Table 2, read-out: D3K1): 6.60

SMILES: O=C(NC/C=C\CN1CCN(c2csc3cc(C(F)(F)F)ccc23)CC1)c1cccc(F)c1 [compound 826342]
pKi (read-out: D3K1): 7.33

SMILES: O=S(=O)(NCC1CC1CN1CCN(c2csc3cc(C(F)(F)F)ccc23)CC1)c1ccc(OC(F)(F)F)cc1 (stereo not drawn) [compound 831592]
pKi [9]: 6.71

SMILES: O=C(NC/C=C/CN1CCN(c2csc3cc(C(F)(F)F)ccc23)CC1)c1cc(F)cc(F)c1 [compound 827716]
pKi (read-out: D3K1): 7.01

SMILES: O=C(Cc1ccccc1)NCC1CCC1CN1CCN(c2csc3cc(C(F)(F)F)ccc23)CC1 (stereo not drawn) [compound 826293]
pKi (read-out: D3K1): 6.62

SMILES: COc1ccc(/C=C/C(=O)NC/C=C/CN2CCN(c3csc4cc(C(F)(F)F)ccc34)CC2)cc1 [compound 827739]
pKi (Table 2, read-out: D3K1): 7.65

SMILES: CCCCCCc1ccc(C(=O)NCCCCCN2CCC(c3noc4ccsc34)CC2)cc1 [compound 816219]
pKi [1]: 6.88

SMILES: O=C(NC/C=C/CN1CCN(c2csc3cc(C(F)(F)F)ccc23)CC1)c1cc2ccccc2[nH]1 [compound 827742]
pKi (Table 2, read-out: D3K1): 7.67

SMILES: C[C@@H]1CN(c2csc3cc(F)ccc23)C[C@H](C)N1CCCCNC(=O)c1n[nH]c2ccccc12 [compound 826966]
pKi [5]: 7.11

SMILES: N#Cc1cccc(C(=O)NC/C=C\CN2CCN(c3csc4cc(C(F)(F)F)ccc34)CC2)c1 [compound 826343]
pKi (read-out: D3K1): 7.28

SMILES: O=C(NC/C=C/CN1CCN(c2csc3cc(C(F)(F)F)ccc23)CC1)c1cccc(F)c1 [compound 827720]
pKi (read-out: D3K1): 7.07

SMILES: C[C@@H]1CN(c2csc3cc(F)ccc23)C[C@H](C)N1CCCCNC(=O)c1ccc(C(F)(F)F)cc1 [compound 826946]
pKi [5]: 7.44

The remaining lines, values ahead:

pKi (read-out: D3K1): 8.68
SMILES: O=C(NCCCCN1CCN(c2csc3cc(C(F)(F)F)ccc23)CC1)c1ccc([N+](=O)[O-])cc1 [compound 815549]

pKi [1]: 9.35
SMILES: O=C(NCCCCN1CCCN(c2csc3cc(F)ccc23)CC1)c1cc2cc(O)ccc2[nH]1 [compound 817270]

pKi [1]: 8.08
SMILES: O=C(NCCCCN1CCCN(c2csc3cc(F)ccc23)CC1)c1cc(Cl)cc(Cl)c1 [S981848]

pKi [1]: 8.33
SMILES: O=C(NCCCCN1CCCN(c2csc3cc(F)ccc23)CC1)c1ccccc1F [compound 822195]

pKi (Table 2, read-out: D3K1): 6.78
pKi [2]: 6.78
SMILES: O=C(NCCCN1CCCN(c2csc3cc(F)ccc23)CC1)c1cccc2ccccc12 [compound 827138]

pKi (read-out: D3K1): 7.85
pKi [6]: 7.85
SMILES: O=C(NCCCCCN1CCN(c2csc3cc(C(F)(F)F)ccc23)CC1)c1ccc(OC(F)(F)F)cc1 [compound 826767]

pKi (the 18th table, read-out: D3 Ki): 7.19
SMILES: O=C(NCc1sccc1CN1CCN(c2csc3cc(F)ccc23)CC1)c1cccc(F)c1 [compound 826303]

pKi [1]: 8.30
SMILES: COc1ccc(C(=O)NCCCCN2CCCN(c3csc4cc(F)ccc34)CC2)cc1OC [compound 822196]

pKi [3]: 7.30
SMILES: O=C(Nc1cccc(CN2CCN(c3csc4cc(F)ccc34)CC2)c1)c1cccnc1Cl [compound 822186]

pKi [6]: 8.41
SMILES: CC1=C(C(=O)NCCCCCN2CCN(c3csc4cc(F)ccc34)CC2)Cc2ccccc21 [compound 826792]

pKi (Table 2, read-out: D3K1): 6.10
pKi [6]: 6.10
SMILES: O=C(NCCCCN1CCN(c2c(-c3ccccc3)sc3cc(F)ccc23)CC1)c1ccc(C(F)(F)F)cc1 [compound 815871]

pKi (Table 2, read-out: D3K1): 7.21
pKi [2]: 7.21
SMILES: O=C(NCCCN1CCCN(c2csc3cc(F)ccc23)CC1)c1cccs1 [compound 827134]

pKi [4]: 7.43
SMILES: O=C(NCCCCN1CCN(c2noc3ccsc23)CC1)c1ccc2[nH]ccc2c1 [compound 829683]

pKi [1]: 9.17
SMILES: O=C(NCCCCN1CCCN(c2csc3cc(F)ccc23)CC1)c1ccc2ccccc2c1 [compound 822156]

pKi (read-out: D3K1): 7.83
pKi [6]: 7.83
SMILES: Cn1c(C(=O)NCCCCCN2CCN(c3csc4cc(C(F)(F)F)ccc34)CC2)cc2ccccc21 [compound 826796]

pKi (read-out: D3K1): 7.02
SMILES: O=C(NCCCCN1CCN(c2c(Cl)sc3cc(C(F)(F)F)ccc23)CC1)c1c(F)cccc1F [compound 815577]

pKi (read-out: D3K1): 8.11
pKi [6]: 8.11
SMILES: O=C(NCCCCCN1CCN(c2csc3cc(C(F)(F)F)ccc23)CC1)c1cccc(F)c1 [compound 826772]

pKi [1]: 7.24
SMILES: O=C(NCCCCCN1CCCN(c2csc3cc(F)ccc23)CC1)c1c2ccccc2cc2ccccc12 [S982542]

pKi [1]: 7.50
SMILES: COc1cc(OC)cc(C(=O)NCCCCCN2CCCN(c3csc4cc(F)ccc34)CC2)c1 [S984487]

pKi [6]: 8.92
SMILES: O=C(NCCCCCN1CCN(c2csc3cc(F)ccc23)CC1)c1c[nH]c2ccccc12 [compound 826787]

pKi (read-out: D3K1): 7.96
pKi [6]: 7.96
SMILES: COc1cc(OC)cc(C(=O)NCCCCCN2CCN(c3csc4cc(C(F)(F)F)ccc34)CC2)c1 [compound 826766]

pKi [1]: 7.34
SMILES: O=C(NCCCCN1CCCN(c2csc3cc(F)ccc23)CC1)c1ccno1 [S981836]

pKi (Table 2, read-out: D3K1): 6.56
pKi (read-out: D3K1): 6.56
pKi [6]: 6.56
SMILES: O=C(NC(CO)CCCN1CCN(c2csc3cc(C(F)(F)F)ccc23)CC1)c1cc2ccc(Cl)cc2s1 (stereo not drawn) [compound 815686]

pKi [1]: 8.22
SMILES: CSc1nsc(SC)c1C(=O)NCCCCN1CCCN(c2csc3cc(F)ccc23)CC1 [S981838]

pKi (read-out: D3K1): 8.36
pKi [6]: 8.36
SMILES: Cc1ccccc1C(=O)NCCCCCCN1CCN(c2csc3cc(C(F)(F)F)ccc23)CC1 [compound 826753]

pKi (read-out: D3K1): 8.11
pKi [6]: 8.11
SMILES: O=C(NCCCCCN1CCN(c2csc3cc(C(F)(F)F)ccc23)CC1)c1cccs1 [compound 826764]

pKi (read-out: D3K1): 8.11
SMILES: O=C(NCCCCN1CCN(c2c(Cl)sc3cc(F)ccc23)CC1)c1c(F)cc(F)cc1F [compound 815054]

pKi (read-out: D3K1): 8.49
pKi [6]: 8.49
SMILES: O=C(NCCCCCCN1CCN(c2csc3cc(C(F)(F)F)ccc23)CC1)c1cccc2ccccc12 [compound 826750]

pKi [1]: 6.64
SMILES: O=C(NCCCCN1CCCN(c2csc3cc(C(F)(F)F)ccc23)CC1)c1cccc(C(F)(F)F)c1 [S980633]

pKi [1]: 7.96
SMILES: COc1cc(OC)cc(C(=O)NCCCCN2CCCN(c3csc4cc(F)ccc34)CC2)c1 [compound 82251]

pKi (read-out: D3K1): 8.72
SMILES: O=C(NCCCCN1CCN(c2c(Cl)sc3cc(F)ccc23)CC1)c1cc2ccccc2s1 [compound 815064]

pKi (Table 2, read-out: D3K1): 6.47
SMILES: O=C(NCCCCN1CCN(c2c(-c3ccccc3)sc3cc(F)ccc23)CC1)c1ccc(F)cc1 [compound 815883]

pKi (Table 2, read-out: D3K1): 6.49
pKi [2]: 6.49
SMILES: CC(C)(C)OC(=O)Cn1c(C(=O)NCCCCN2CCCN(c3csc4cc(F)ccc34)CC2)cc2ccccc21 [compound 817271]

pKi (read-out: D3K1): 7.82
SMILES: O=C(NCCCCN1CCN(c2c(Cl)sc3cc(F)ccc23)CC1)c1c(F)cccc1F [compound 815069]

pKi (read-out: D3K1): 7.52
SMILES: COc1ccc(C(=O)NCCCCN2CCN(c3c(Cl)sc4cc(C(F)(F)F)ccc34)CC2)cc1OC [compound 815570]
